In BindingDB's records for patent US11964990 (Abbvie, 2024):

Columns and labels:
[1] = target: Apoptosis regulator Bcl-2 (Homo sapiens, UniProt P10415); test: Time Resolved-Fluorescence Resonance Energy Transfer (TR-FRET) Assay
Experimental: (§1) [Bcl-2 protein or Bcl-xL protein], [Probe], [Antibody],Protein Probe nM nM Antibody nMGST- F-Bak 1 100 Tb-anti- 1Bcl- Acetyl-(SEQ GST 2 ID NO: 3)-NH2The samples were then mixed on a shaker for 1 minute and equilibrated for an additional 3 hours at room temperature. For each assay plate, a probe/antibody and protein/antibody/probe mixture were included as a negative and a positive control, respectively. Fluorescence was measured on the Envision (Perkin Elmer) using a 340/35 nm excitation filter and 520/525 (F-Bak) and 495/510 nm (Tb-labeled anti-GST antibody) emission filters. Inhibition constants (Ki) were determined using Wang's equation (Wang FEBS Lett. 1995, 360, 111-114). The TR-FRET assay can be performed in the presence of varying concentrations of human serum (HS) to determine apparent half maximal inhibitory concentration (IC50) after HS protein binding.

Bcl-2-like protein 1 = Bcl-2-like protein 1 (Homo sapiens, UniProt Q07817); test: as above
Experimental: as §1

Chain of Bcl-2-like protein 1 (Q07817 whole entry): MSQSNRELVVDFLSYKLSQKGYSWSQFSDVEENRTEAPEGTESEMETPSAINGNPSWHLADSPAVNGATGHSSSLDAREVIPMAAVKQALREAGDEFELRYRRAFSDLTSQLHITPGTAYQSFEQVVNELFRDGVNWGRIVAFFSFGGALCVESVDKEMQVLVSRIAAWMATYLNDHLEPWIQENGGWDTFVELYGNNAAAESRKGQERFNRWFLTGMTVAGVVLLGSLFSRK
Chain of Apoptosis regulator Bcl-2 (P10415 whole entry): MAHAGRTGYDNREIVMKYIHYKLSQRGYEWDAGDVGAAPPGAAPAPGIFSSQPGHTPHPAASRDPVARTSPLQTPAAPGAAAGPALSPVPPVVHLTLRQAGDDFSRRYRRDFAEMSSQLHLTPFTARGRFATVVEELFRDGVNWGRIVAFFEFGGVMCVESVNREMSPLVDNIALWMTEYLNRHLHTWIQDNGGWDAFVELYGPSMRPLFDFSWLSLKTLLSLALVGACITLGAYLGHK

Compound: C[C@@H]1CC[C@H](CNc2ccc(S(=O)(=O)NC(=O)c3ccc(N4CCN5CC6=C(c7ccc(Cl)cc7)CC(C)(C)C[C@H]6OCCCOC[C@@H]5C4)cc3N3CCCOc4nc5[nH]ccc5cc43)cc2[N+](=O)[O-])OC1 [US11964990, Example 21]
- Ki [1]: 0.521 nM
- Ki (Bcl-2-like protein 1): 58.9 nM
